Experimental data: patent publication US8119400B2, “Methods of inhibiting smooth muscle cell migration and proliferation” (Beth Isreal Deaconess Medical Center, Inc., priority 2005, dated 2012)
Entries after “also recorded” stand apart in the source; their conditions may differ. No end group written: not given here. *: point of attachment. Myristoyl = CCCCCCCCCCCCCC(=O)*; {P} = phosphate

Assays:
[1] = tested on: MARCKS mRNA; assay: Rapid siRNA transfection, MARCKS mRNA knockdown, HVSMCs; type: cell-based, human; details: 10 minutes, 2000 cells per well
Method: (§1) To more rigorously study the effects of pressure on gene silencing in vascular cells and develop an in vitro model for rapid siRNA transfection, a chamber that could hold standard tissue culture plates and be pressurized with wall air was fabricated. HVSMCs and HECs were seeded in 96-well plates at a density of 6,000 cells/cm^2 and were treated with Control or MARCKS siRNA suspended in normal saline solution, without the addition of a transfection reagent, at concentrations from 1-25 μM in either water, lactate ringers solution (Baxter, Deerfield, Ill.), normal saline (Baxter), cell media, or Plasmalyte A (Baxter) supplemented with 12 mg/ml papaverine hydrochloride and 4 units/ml heparin sodium (LoGerfo, FW et al. (1984) Arch. Surg. 119(10):1212-1214). First, siRNA solutions were applied to one plate of each cell type and rapid siRNA transfection was performed by placing cells in the specially-designed pressure chamber for 10 minutes while raising the ambient pressure by 0-1 ATM using wall air. Cells were then removed from the chamber and the siRNA solution was promptly aspirated and replaced with fresh media prior to returning the plates to the incubator. Parallel plates were subjected the same siRNA treatment and placed in the chamber for 10 minutes without pressurization.
(§2) Evaluation of target gene mRNA knockdown was performed as described in Example 8 above.

[2] = tested on: MARCKS protein; assay: MARCKS protein Western blot, HVSMCs; type: cell-based, human; details: 100 nM, 3 days after lipofection
Method: (§3) MARCKS knockdown was achieved by lipofection of HVSMCs and HECs with MARCKS siRNA. Lipofection was performed using the DharmAFECT1 transfection reagent (Dharmacon) for 24 hours in serum- and antibiotic-free media as per manufacturer's protocol.
(§4) Cell extracts were recovered from 6-well plates after siRNA lipofection and analyzed by sodium dodecyl sulfate-polyacrylamide gel electrophoresis (SDS-PAGE) and Western blotting with the use of standard techniques. Antibodies used for protein detection were: mouse monoclonal anti-GAPDH (1:10,000 dilution, Ambion), goat polyclonal anti-MARCKS (N-19) IgG (1:100 dilution, Santa Cruz Biotechnology, Santa Cruz, Calif.), mouse monoclonal anti-p27^kip-1 (1:250 dilution, Pharmingen, San Diego, Calif.) and mouse anti-β-tubulin IgM (clone 5H1) (1:250 dilution, Pharmingen, San Diego, Calif.). Secondary antibodies used were peroxidase-conjugated goat anti-mouse IgG (H+L) (1:1,000-1:5,000 dilution, Chemicon International, Temecula, Calif.) and peroxidase-conjugated rabbit anti-goat IgG (H+L) (1:500 dilution, Bio-Rad). Densitometry was performed using Adobe Photoshop 6.0 or NIH Image J 1.34.

[3] = tested on: HVSMCs; assay: alamarBlue proliferation assay, HVSMCs; type: cell-based, human
Method: Phenotypic analysis of vascular cell proliferation was performed using the alamarBlue assay (Trek Diagnostics, Cleveland, Ohio), as previously described (Voytik-Harbin, SL et al. (1998) In Vitro Cell Dev. Biol. Anim. 34(3):239-246), to quantitate total cellular metabolic activity in the wells of tissue culture plates. Briefly, HVSMCs were plated on 24-well plates at a density of 10,000 cells per well and grown for 24 hours in normal cell media. Afterwards, a Day 0 measurement of fluorescent intensity after 4 hour incubation with the alamarBlue reagent was obtained prior to siRNA lipofection. 24 hour siRNA lipofection in serum-free media served as the starvation period to synchronize cells in the cell cycle, followed by the application of media with 30% FBS to stimulate proliferation. AlamarBlue assays were performed every two days, followed by the reapplication of fresh media with 30% FBS. For analysis, the fluorescence intensity of each well was determined using an LS-5B Luminescence Spectrometer (PerkinElmer) at excitation and emission wavelengths of 509 and 590 nm, respectively, and was divided by the value obtained at Day 0 to generate a measure of relative proliferation.

[4] = tested on: HECs; assay: Fluoroblok migration assay, HECs; type: cell-based, human
[5] = tested on: MARCKS protein; assay: MARCKS protein Western blot, HECs; type: cell-based, human; details: 25 nM, 3 days after lipofection
Method: as §3, §4

[6] = tested on: p27^kip1; assay: p27kip1 Western blot after MARCKS knockdown, HVSMCs; type: cell-based, human; details: 25 nM, 24 hours post-induction with 30% FBS, GAPDH corrected densitometry
Method: (§5) To investigate the differential effects of MARCKS knockdown on the proliferation of vascular cells, Western blots were performed to assess p27^kip1 expression after the induction of proliferation in HVSMCs and HECs. To assess p27^kip1 expression in the setting of MARCKS knockdown, HVSMC and HECs were transfected with 25 nM Control (C) or MARCKS (M) siRNA followed by 48 hour starvation in media with 0.1% FBS to synchronize cells in the Go phase of the cell cycle. Proliferation was then induced by the addition of media with 30% FBS and cells were lysed 24 hours post-induction for protein harvest and Western blot analysis.
as §4, with “Secondary antibodies used were peroxidase-conjugated goat anti-mouse IgG (H+L) (1:1,000-1:5,000 dilution, Chemicon International, Temecula, Calif.) and peroxidase-conjugated rabbit anti-goat IgG (H+L) (1:500 dilution, Bio-Rad). Densitometry was performed using Adobe Photoshop 6.0 or NIH Image J 1.34.” left out

[7] = tested on: HECs; assay: alamarBlue proliferation assay, HECs; type: cell-based, human; details: 25 nM
[8] = tested on: HVSMCs; assay: Fluoroblok migration assay, HVSMCs; type: cell-based, human; details: 100 nM, 3 days after lipofection, 30% FBS
Method: The migratory and proliferative abilities of HVSMCs and HECs were assessed after MARCKS knockdown using migration and proliferation assays. Phenotypic analysis of HVSMC migration was performed using the Fluoroblok migration assay (BD Biosciences, San Jose, Calif.) to measure the ability of calcein-AM fluorescently-labeled cells to migrate through a PET membrane with […] towards a chemotactant stimulus of 30% FBS. Briefly, VSMCs were incubated in 10 μM calcein-AM (Invitrogen) for 1 hour, trypsinized, and resuspended in serum-free VSMC media. In this assay, the upper chamber of the Transwell insert is separated from the lower chamber by a fluorescently opaque polyethyleneterephthalate (PET) membrane with 8 μm pores at the base of the insert. Approximately 50,000 VSMCs were loaded in each of the upper wells. The lower wells contained media supplemented with serum-free VSMC media, VSMC media with 30% FBS, or EC-conditioned media to stimulate cell migration. At time 0, the upper chambers were read at an excitation of 485 nm and an emission of 535 nm on a Biotek Fluorometer FLX800 (BioTek Instruments) and returned to the incubator. After 24 hours, the lower chambers were read with the same settings. The proportion of cells migrated were calculated by dividing the fluorescent intensity after 24 hours by the intensity read at time 0. […]

[9] = tested on: MARCKS mRNA; assay: MARCKS mRNA knockdown after lipofection, HECs (qRT-PCR); type: cell-based, human; details: 5 nM, 24 hours after lipofection
Method: as §3
(§6) Evaluation of target gene mRNA knockdown after siRNA delivery was analyzed using a Stratagene MX3000P real time PCR (qRT-PCR) machine (Stratagene, La Jolla, Calif.). Total RNA was extracted from plate wells using RNeasy spin columns (Qiagen, Valencia, Calif.) and cDNA was prepared from […] using the iScript cDNA synthesis kit (Bio-Rad, Hercules, Calif.) prior to thermal cycling. For quantitative analysis, target gene levels were normalized to 18s or B2M levels as previously described (Bustin, S A et al. (2004) J. Mol. Endocrinol. 29(1):23-39), and target and housekeeper gene amplification reactions were performed in triplicate for each cDNA sample using 1 μl cDNA per reaction. […]
(§7) Thermal cycling was performed under the following conditions: Stage 1: 10 minutes at 95° C.; Stage 2 (40 cycles): 30 seconds at 95° C., 1 minute at 60° C., 30 seconds at 72° C. The Comparative Quantification software tool was used to compare normalized gene levels from cells transfected with targeting siRNA vs. non-targeting control siRNA (calibrators). […]

[10] = tested on: VSMCs in human saphenous vein; assay: Proliferation after ex vivo siRNA transfection of whole vein; type: cell-based; details: 100 nM, three days after transfection, vs control siRNA
[11] = tested on: MARCKS mRNA; assay: MARCKS mRNA knockdown after lipofection, HVSMCs (qRT-PCR); type: cell-based, human; details: 100 nM, 24 hours after lipofection
Method: as §3, §6, §7

[12] = tested on: p27^kip1; assay: p27kip1 Western blot after MARCKS knockdown, HECs; type: cell-based, human; details: 25 nM, 24 hours post-induction with 30% FBS, GAPDH corrected densitometry
Method: as §5
as §4, with “Secondary antibodies used were peroxidase-conjugated goat anti-mouse IgG (H+L) (1:1,000-1:5,000 dilution, Chemicon International, Temecula, Calif.) and peroxidase-conjugated rabbit anti-goat IgG (H+L) (1:500 dilution, Bio-Rad). Densitometry was performed using Adobe Photoshop 6.0 or NIH Image J 1.34.” left out

[13] = tested on: MARCKS mRNA; assay: Rapid siRNA transfection, MARCKS mRNA knockdown, HECs; type: cell-based, human; details: 10 minutes, 2000 cells per well
Method: as §1, §2

[14] = tested on: VSMCs; details: 100 μM, after 5 days of serum stimulation
Method: When it is reduced, it emits fluorescence at 590 nm. Therefore, emission at 590 nm was used as a marker for relative cellular proliferation. Cells were incubated in the dark in media containing 10% alamarBlue (BioSource International, Carmilla, Calif.) and 10% FBS for four hours. After incubation, 1 ml of media from the incubated cells was mixed with 1 ml of media containing 10% FBS and the emission at 590 nm was recorded.
A time-zero alamarBlue Assay was performed after a 12-hour period of starvation to assure equal cell loading and synchronization in the cell cycle. The cells were incubated with predetermined concentrations of the PKC inhibitor, 20-28. Cells were incubated in media with 30% FBS for a total of 24 hours. At that point, alamarBlue assays were performed at predetermined intervals. After each assay was completed, the media was replenished with media containing 30% FBS. As in the migration assay, an unstimulated, negative control with standard media was assayed.
To inhibit the effects of MARCKS activity, cells in culture were treated with the protein kinase C inhibitor 20-28 (Calbiochem, La Jolla, Calif.). […] Eichholtz, T. et al. (1993) J. Biol. Chem. 268:1982-1986.

[15] = tested on: VSMCs; details: 100 μM, 24 hours, FBS and TNF-α stimulus
Method: To assess cellular migration, a fluorescent migration assay (BD Biosciences, San Jose, Calif.) was utilized. In this assay, VSMC's grown in culture were labeled with 1 μM calcein. Approximately 50,000 cells, suspended in serum free media, were loaded onto a 0.3 cm^2 insert. The surface of the insert is a fluorescently-opaque polyethylene terephthalate (PET) membrane with 8 μm pores that are sufficiently large to permit cells to migrate across its surface. The insert was placed in a tissue culture plate with a chemotactic stimulus, TNF-α, in the lower well, which contained media with 30% FBS and TNF-A at a concentration of 200 Units/ml. Immediately after the inserts were placed into the respective wells, the wells were excited at a wavelength of 485 nm and the fluorescence emission was read at 535 nm. At the order of magnitude of cells that were used, the fluorescence is proportional to cell number in a linear relationship. After 24 hours, the plate was excited a second time and emission at 535 nm was read. Fluorescence was read only from the bottom well, such that only cells that have migrated contribute to the measured fluorescence. The proportion of cells that migrated was determined by dividing the fluorescence of the bottom of the wells at 24 hours by the initial fluorescence from the top of the wells at the time of plating. […]

Row | Substance | MARCKS knockdown ([1]; 0 ATM) [%] | MARCKS knockdown ([1]; 0.4 ATM) [%] | MARCKS protein knockdown (Western blot) [2] | effect on HVSMC proliferation ([3]; 25 nM (FIG. 15A: 25, 50 and 100 nM), vs control scrambled siRNA) | proliferation, fold increase at day 6 ([3]; HVSMCs, 25 nM, 30% FBS, relative to Day 0) [fold] | effect on cellular migration ([4]; 25 nM (FIG. 14B also 10 nM), vs control siRNA) | relative cellular migration ([4]; 25 nM, 5% FBS with 200 ng/ml VEGF) | MARCKS protein knockdown (Western blot) [5] | increase in p27^kip1 protein expression relative to controls [6] [fold] | effect on HEC proliferation ([7]; full MARCKS knockdown) | proliferation, fold increase at day 6 ([7]; HECs, relative to Day 0) [fold] | cellular migration, % of controls [8] [%] | MARCKS mRNA knockdown [9] [%] | effect on proliferation in transfected vein [10] | MARCKS mRNA knockdown [11] [%] | increase in p27^kip1 protein expression relative to controls [12] [fold] | MARCKS knockdown ([13]; 0 ATM) [%] | MARCKS knockdown ([13]; 0.4 ATM) [%] | emission at 590 nm (alamarBlue) [14] | proportion of cells migrated across the membrane [15]
1 | MARCKS siRNA: siRNA, sense 5′-GGU-GCC-CAG-UUC-UCC-AAG-AUU-3′ (SEQ ID NO. 18), anti-sense SEQ ID NO. 19 with 5′ phosphate (sense GGUGCCCAGUUCUCCAAGAUU; antisense UCUUGGAGAACUGGGCACCUU; sense: chemistry not given here; antisense: 5' {P}, sugars by position and backbone not given here) | 0±12 | 41±12 | complete knockdown | near complete arrest | 1.41±0.36 | no significant effect; also recorded: no significant difference | 1.0±0.7 | complete knockdown | 3.2 | only a minimal effect | 1.90±0.06 | 68±7 | 89±1 | reduced proliferation | 54±2 | 1.8 | 22±17 | 53±10 | – | –
2 | Myristoyl-FARKGALRQ [20-28] | – | – | – | – | – | – | – | – | – | – | – | – | – | – | – | – | – | – | 58.0±12.1 | 6.9%±1.5%
